The values below come from patent US20090118253A1, “COMPOSITIONS AND METHODS FOR TREATING DYSFUNCTIONAL UTERINE BLEEDING” (REPROS THERAPEUTICS INC., priority 2007, published 2009).

In series [1] the test system is progesterone-induced endometrial glandular proliferation in rabbit uterus. Description: anti-McGinty and anti-Clauberg assays in the rabbit uterus. The series is classed as in vivo. The text has this: Also given in Table 1 are the relative biological activities of the same compounds in the rabbit uterus by the anti-McGinty and anti-Clauberg assays. Compound CDB-2914 (listed at the end of the Table) was used as the control or reference compound (rabbit Biological Activity=1.00) for these experiments because results of experiments using CDB-2914 have been published before (Hild-Petito et al., 1996; Passaro et al., 1997; Reel et al., 1998; Lamer et al., 2000). For the anti-McGinty test, immature female rabbits received a subcutaneous injection of 5 μg estradiol in 10% ethanol/sesame oil daily for 6 consecutive days. On day 7, animals underwent sterile abdominal surgery to ligate a 3-4 cm segment of both uterine horns. The test compound in appropriate solvent was injected intraluminally into the ligated segment of one uterine horn and vehicle alone into the other. A stimulating dose of progesterone (267 μg/day) was administered subcutaneously to each rabbit daily for the next three days to induce endometrial proliferation. All animals were sacrificed at day 10 for removal of the uterus where a segment central to the ligatures was removed and fixed in 10% neutral buffered formalin and submitted for histological processing. Five micron sections stained with hematoxylin and cosin were evaluated microscopically for the degree of endometrial glandular proliferation. The percent inhibition of endometrial proliferation for each rabbit was calculated and the mean of the group of five animals recorded. For the Anti-Clauberg test, immature female rabbits received a subcutaneous injection of 5 μg estradiol in 10% ethanol/sesame oil daily for 6 consecutive days. On day 7, animals received progesterone by subcutaneous injection (160 μg/day) and the experimental compound in appropriate vehicle orally or subcutaneously for five consecutive days. One group of rabbits received progesterone only. Twenty-four hours after the last dose, all animals were sacrificed for removal of the uterus which was cleaned of all fat and connective tissue, weighed to the nearest 0.2 mg and placed in 10% neutral buffered formalin for subsequent histological processing. Five micron sections stained with hematoxylin and eosin were evaluated microscopically for the degree of endometrial glandular proliferation. The percent inhibition of endometrial proliferation at each dose level of the test compound was derived by comparison with progesterone-stimulated animals alone. The data presented in Table 1 (rabbit Biol. Act.) reflects the average of the results obtained for each compound by the anti-McGinty and anti-Clauberg assays relative to CDB-2914.

In series [2] the target is T1, glucocorticoid receptor (rbGR) (Oryctolagus cuniculus, UniProt P59667).
T1 construct: cytosol containing PR or GR were prepared in TEGMD buffer; from tissue; host or cells: thymus of estradiol-primed immature rabbits (cytosol)
T1 sequence (P59667 1-772): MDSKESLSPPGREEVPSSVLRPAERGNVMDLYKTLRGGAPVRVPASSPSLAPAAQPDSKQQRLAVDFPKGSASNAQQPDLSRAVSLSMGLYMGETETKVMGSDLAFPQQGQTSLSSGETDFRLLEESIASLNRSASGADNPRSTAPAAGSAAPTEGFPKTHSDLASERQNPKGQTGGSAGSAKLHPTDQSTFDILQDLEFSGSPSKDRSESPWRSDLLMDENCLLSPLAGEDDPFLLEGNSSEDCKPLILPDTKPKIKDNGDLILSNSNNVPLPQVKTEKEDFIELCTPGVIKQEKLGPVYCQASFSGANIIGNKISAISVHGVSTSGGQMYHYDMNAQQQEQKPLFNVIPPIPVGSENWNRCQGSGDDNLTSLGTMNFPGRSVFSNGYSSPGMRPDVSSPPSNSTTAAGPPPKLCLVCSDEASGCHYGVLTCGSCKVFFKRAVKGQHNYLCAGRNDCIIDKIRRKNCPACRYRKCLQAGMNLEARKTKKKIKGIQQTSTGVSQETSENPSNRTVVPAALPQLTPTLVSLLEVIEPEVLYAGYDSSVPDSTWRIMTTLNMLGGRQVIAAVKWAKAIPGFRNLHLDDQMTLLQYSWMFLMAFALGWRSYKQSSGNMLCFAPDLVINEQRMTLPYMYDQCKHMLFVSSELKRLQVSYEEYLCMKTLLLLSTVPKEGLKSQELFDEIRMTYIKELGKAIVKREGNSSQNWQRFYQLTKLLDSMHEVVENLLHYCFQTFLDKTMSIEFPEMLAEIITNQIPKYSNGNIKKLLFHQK
The series is described as follows: Glucocorticoid receptor binding / anti-glucocorticoid receptor activity. On the set-up: species or system rabbit. The procedure: Certain antiprogestins were tested in receptor-binding assays for their ability to bind rabbit progesterone receptor (rbPR) and glucocorticoid receptor (rbGR). […] For PR binding, the cytosol was incubated with 6 nM 1,2-[^3H]progesterone (50.0 Ci/mmole) and competitors were added at concentrations from 2 to 100 nM. For binding to GR, the cytosol was incubated with 6 nM 6,7-[^3H]-dexamethasone (40 Ci/mmol) and test compounds were added at concentrations from 20 to 100 nM. After overnight incubation at 4 C, bound and unbound [^3H] steroids were separated by addition of dextran-coated charcoal and centrifugation at 2100×g for 15 min at 4 C. Supernatants containing the [3H]-steroid receptor complexes were decanted into vials containing 4 ml Optifluor (Packard Instrument Co.), vortexed, equilibrated in a liquid scintillation counter for 30 minutes and then counted for 2 minutes. […] The standards for the PR and GR assays were unlabeled progesterone and dexamethasone, respectively.

Series [3] can be described thus: Serum corticosterone in rats. The following applies: CDB-4124 10 or 20 mg/kg, RU 486 10 mg/kg, progesterone 10 mg/kg.
A further series deals with human endometrium. Description: Six month endometriosis study: ultrasound measurements of endometrial thickness. The conditions noted are these: for Endometrium (mm), 1st dose: 1st dose visit; for Endometrium (mm), screening: screening (baseline). The format is in vivo. An excerpt: Women in the study were closely monitored for changes in the structure of the endometrium. […] Comparisons were made to both baseline and visit one ultrasound measurements of endometrial thickness. […]

The test system of series [4] is pre-menopausal adult women diagnosed with endometriosis. The series is described as follows: Six month endometriosis study: side effects and bleeding events. The format is in vivo, human. The procedure: Although this was a small study and no definitive conclusions can be made from the safety data, there was no single signal of safety observed.
A similar event was not seen at the 50 mg dose during the treatment phase. Greater than normal bleeding occurred in two patients in the 50 mg CDB-4124 group after treatment was stopped and a D&C was performed in one and the other successfully managed conservatively.

Consider `COCC(=O)[C@@]1(OC(C)=O)CC[C@H]2[C@@H]3CCC4=CC(=O)CCC4=C3[C@@H](c3ccc(N(C)C)cc3)C[C@@]21C` [CDB-4124, 21-methoxy-17α-acetoxy-11β-(4 N,N-dimethylaminophenyl)-19-norpregna-4,9-diene-3,20-dione], for which, in series [1] (average of anti-McGinty and anti-Clauberg results relative to CDB-2914 (=1.00)), the “rabbit Biol. Act.” value is 3.60. The “antiprogestin activity in the rabbit uterus” value in series [1] (in comparison to RU 486 and CDB-2914) is on record as “strong antiprogestin activity”. Besides, the “anti-glucocorticoid receptor activity / glucocorticoid receptor binding” value in series [2] was “minimal anti-glucocorticoid receptor activity”. For the same compound, the “differences in serum corticosterone between groups” value in series [3] is listed as “No differences”. For the same compound, the “women exhibiting thickened endometrium after three months” value in the series on human endometrium (12.5 mg dose (n=4)) is on record as “two”; with human endometrium (25 mg dose (n=4)), “One”; in the series on human endometrium (50 mg dose (n=3)), “none”. For the same compound, the figures for the “Endometrium (mm), 1st dose” value in the series on human endometrium (12.5 mg), in the series on human endometrium (25 mg) and with human endometrium (50 mg) were 8.0 mm, 11.7 mm and 10.8 mm, respectively. For the same compound, the “Endometrium (mm), 3 months” value was found to be 20.33 mm in the series on human endometrium (12.5 mg), 19.6 mm with human endometrium (25 mg) and 7.7 mm in the series with human endometrium (50 mg). In addition, the results for the “Endometrium (mm), screening” value in the series with human endometrium (12.5 mg), in the series on human endometrium (25 mg) and in the series on human endometrium (50 mg) were 7.5 mm, 8.4 mm and 8.0 mm, respectively. The “cases of non-menstrual spotting and bleeding with excessive endometrial thickening needing D&C” value in series [4] (12.5 mg and 25 mg CDB-4124 groups, treatment phase) is recorded as “two cases”. For the same compound, the “patients with greater than normal bleeding after treatment was stopped” value in series [4] (50 mg CDB-4124 group) is “two patients”. The “non-menstrual spotting and bleeding with excessive endometrial thickening needing D&C” value in series [4] (50 mg dose, treatment phase) is on record as “not seen”. Also, the side effects result in series [4] (women, six month study) is listed as “generally mild”.
